# According to US9139551B2, “Preparation of a new class of water-soluble ammonium 2,3-dihydroxy-5-((2R,3R)-3,5,7-trihydroxy-4-oxochroman-2-yl) phenolates and their biological activity of alcohol elimination” (priority 2014, dated 2015):
# Marks after values point to notes of the source that are not given here.
# Tests used:
# [1] = system: Balb/C mice; test: Deintoxication test (agent 30 min before alcohol)
# [2] = system: Balb/C mice; test: Climbing net test; assay type: in vivo; details: 2 mg/kg gavage 30 min before alcohol
# Protocol: Climbing Net Test • Groups design and treatment before experiment are as the same as that in deintoxication test. […] 30 minutes later all mice administrated alcohol (liquid Erguotou, ethonol concentration was diluted to 30%) 0.2 mL/kg BW and placed on a vertical metal net and measured the time when mice climbed on net.
# [3] = system: mice; test: Acute toxicity, intragastric administration (maximum tolerated dose)
# [4] = system: Balb/C mice; test: Anti-alcoholism test (agent 30 min after alcohol); assay type: in vivo
# Description: Anti-Alcoholism Tests • Groups design and treatment before experiment are as the same as that in Deintoxication test. […]
# [5] = system: Balb/C mice; test: Plasma EtOH concentration assay; assay type: in vivo; details: intragastric 2 mg/kg
# Protocol: Plasma EtOH Concentration Assay. • Blood samples from the tail vein of mice at different time points (0, 15, 30, 45, 60, 90, 120, 240, 480 and 720 minutes) after EtOH (30% ethanol, 0.2 ml/kg bw) or TDHM (2 mg/kg bw), PDHM (2 mg/kg bw) or DHM (2 mg/kg bw) gavage were collected for plasma EtOH concentrations (plasma [EtOH]) assays. (“BW” or “bw”: body weight) • Briefly, the Balb/C mice were put into a restraint tube and the tail was warmed at 37° C. The tail vein at the tip of the tail was punched with a sharp blade. Approximately 0.2 ml venous blood was dropped to a capillary blood collection tube containing lithium heparin (Ram Scientific). Blood samples were centrifuged at 2500 rpm for 20 min. The supernatant was collected and stored at −80° C. until assay. The EtOH content of each blood sample was measured in duplicate along with EtOH standards using the alcohol oxidase reaction procedures (EnzyChrom™ Ethanol Acid Assay Kit, ECET-100) (Liang et al., 2007). The sample preparations were the same as described above.
# [6] = system: Balb/C mice; test: Dose-effect relationship of TDHM (sleep time and climbing time); assay type: in vivo
# Protocol: Assay the Dose-Effect Relationship of TDHM • Groups design and treatment before experiment are the same as that in Deintoxication test. 30 minutes before intragastric administration of alcohol, mice were gavaged with 0.5 mg/kg BW, 2.0 mg/kg BW, 8.0 mg/kg BW, 32 mg/kg BW, 64 mg/kg BW, 128 mg/kg BW TDHM respectively. Sleep time and climbing time were recorded.
# [7] = system: mice; test: Acute toxicity, intraperitoneal administration (mortality, LD50, body weight, dietary); assay type: in vivo; details: for Dead number: 20 mice; for Dead number / mortality: 7 days
# Protocol: Acute Toxicity • Compounds PDHM/TDHM.
# 140 mice were divided into 7 groups (n=20), each group include 10 males and 10 females, they were treated with different concentrations of dosages and observed for 7 days. Specific experimental groups and experimental results were noted below. Note: Section 1-6 group compound are PDHM groups, and group 7 is a negative control group.
# 140 mice were divided into 7 groups (n=20), each group include 10 males and 10 females, they were treated with different concentrations of dosage and observed for 7 days. Note: Section 1-6 group compound are PDHM groups, and group 7 is a negative control group.
# [8] = 2 mg/kg gavage 30 min before 30% ethanol
# [9] = 2 mg/kg gavage 30 min before 30% ethanol, 20 mice
# [10] = agents intragastric 30 minutes before drinking
# [11] = 2 mg/kg gavage 30 min after 30% ethanol
# [12] = 2 mg/kg gavage 30 min after 30% ethanol, 20 mice
# [13] = 8.0 mg/kg BW intragastric, drunk mice
# [14] = TDHM 0.5 mg/kg gavage 30 min before alcohol
# [15] = TDHM 2 mg/kg gavage 30 min before alcohol
# [16] = TDHM 8 mg/kg gavage 30 min before alcohol
# [17] = TDHM 32 mg/kg gavage 30 min before alcohol
# [18] = TDHM 64 mg/kg gavage 30 min before alcohol
# [19] = TDHM 128 mg/kg gavage 30 min before alcohol
substance,measurement,setting,value
"triethylammonium 2,3-dihydroxy-5-((2R,3R)-3,5,7-trihydroxy-4-oxochroman-2-yl)phenolate [TDHM]",Sleep time M ± SD,[1]; [8],69.29 ± 48.40 min
same,Tolerance time M ± SD,[1]; [8],43.29 ± 23.44 min
same,Dead number,[1]; [9],0 piece
same,Rate of drunk,[1]; [9],0%
same,holding time comparing with DHM,[1]; [10],shorten
same,tolerance time of righting reflex disappearing comparing with DHM,[1]; [10],obviously prolonged
same,climbing time vs normal control mice,[2],significantly prolonged
same,climbing,[2]; vertical metal net,471.5 ± 155.89 min
same,"pathological examination of stomach, liver, kidney","[3]; mice at MTD, end of 7-day observation","no obvious degeneration, necrosis and other changes"
same,"pathology changes in livers, kidneys, hearts and lungs",[3]; mice of the toxicity experiments,No degeneration and necrosis pathology changes
same,deaths during the observation period at MTD,"[3]; mice, gavage three times a day, 7 days",No deaths
same,Sleep time M ± SD,[4]; [11],99.29 ± 19.23*^& min
same,Tolerance time M ± SD,[4]; [11],26.28 ± 17.49 min
same,Dead number,[4]; [12],0 piece
same,Rate of drunk,[4]; [12],0%
same,sleep time in drunk mice comparing with DHM,[4]; 2 mg/kg gavage 30 min after alcohol,remarkably shorten
same,blood alcohol concentration vs control group treated with saline,[5],significantly decreased
same,reduction of blood alcohol concentration compared with DHM,[5],better beneficial effect than DHM
same,climbing time vs other concentrations of TDHM,[6]; [13],longer
same,sleep time vs other concentrations of TDHM,[6]; [13],significantly shorter
same,Climbing time,[6]; [14],184.5 min
same,Holding time,[6]; [14],147.2 min
same,Climbing time,[6]; [15],272.67 min
same,Holding time,[6]; [15],151.00 min
same,Climbing time,[6]; [16],368.33 min
same,Holding time,[6]; [16],104.5 min
same,Climbing time,[6]; [17],243.17 min
same,Holding time,[6]; [17],106.67 min
same,Climbing time,[6]; [18],271.83 min
same,Holding time,[6]; [18],84.33 min
same,Climbing time,[6]; [19],298.33 min
same,Holding time,[6]; [19],93.5 min
same,Dead number,[7]; TDHM 636 mg/kg i.p.,0
same,mortality,[7]; TDHM 636 mg/kg i.p.,0%
same,average dietary of mice,"[7]; TDHM 636 mg/kg i.p., D1",3.62 g
same,average dietary of mice,"[7]; TDHM 636 mg/kg i.p., D2",4.67 g
same,average dietary of mice,"[7]; TDHM 636 mg/kg i.p., D3",5.33 g
same,average dietary of mice,"[7]; TDHM 636 mg/kg i.p., D4",6.4 g
same,average dietary of mice,"[7]; TDHM 636 mg/kg i.p., D5",5.53 g
same,average dietary of mice,"[7]; TDHM 636 mg/kg i.p., D6",5.18 g
same,average dietary of mice,"[7]; TDHM 636 mg/kg i.p., D7",5.44 g
same,Dead number,[7]; TDHM 674.16 mg/kg i.p.,4
same,mortality,[7]; TDHM 674.16 mg/kg i.p.,20%
same,average dietary of mice,"[7]; TDHM 674.16 mg/kg i.p., D1",3.96 g
same,average dietary of mice,"[7]; TDHM 674.16 mg/kg i.p., D2",4.8 g
same,average dietary of mice,"[7]; TDHM 674.16 mg/kg i.p., D3",6.7 g
same,average dietary of mice,"[7]; TDHM 674.16 mg/kg i.p., D4",6.98 g
same,average dietary of mice,"[7]; TDHM 674.16 mg/kg i.p., D5",5.58 g
same,average dietary of mice,"[7]; TDHM 674.16 mg/kg i.p., D6",5.58 g
same,average dietary of mice,"[7]; TDHM 674.16 mg/kg i.p., D7",5.73 g
same,Dead number,[7]; TDHM 714.61 mg/kg i.p.,4
same,mortality,[7]; TDHM 714.61 mg/kg i.p.,20%
same,average dietary of mice,"[7]; TDHM 714.61 mg/kg i.p., D1",3.62 g
same,average dietary of mice,"[7]; TDHM 714.61 mg/kg i.p., D2",5.42 g
same,average dietary of mice,"[7]; TDHM 714.61 mg/kg i.p., D3",6.55 g
same,average dietary of mice,"[7]; TDHM 714.61 mg/kg i.p., D4",7.06 g
same,average dietary of mice,"[7]; TDHM 714.61 mg/kg i.p., D5",5.49 g
same,average dietary of mice,"[7]; TDHM 714.61 mg/kg i.p., D6",5.17 g
same,average dietary of mice,"[7]; TDHM 714.61 mg/kg i.p., D7",5.2 g
same,Dead number,[7]; TDHM 757.49 mg/kg i.p.,8
same,mortality,[7]; TDHM 757.49 mg/kg i.p.,40%
same,average dietary of mice,"[7]; TDHM 757.49 mg/kg i.p., D1",3.95 g
same,average dietary of mice,"[7]; TDHM 757.49 mg/kg i.p., D2",5.3 g
same,average dietary of mice,"[7]; TDHM 757.49 mg/kg i.p., D3",7.08 g
same,average dietary of mice,"[7]; TDHM 757.49 mg/kg i.p., D4",8.18 g
same,average dietary of mice,"[7]; TDHM 757.49 mg/kg i.p., D5",5.78 g
same,average dietary of mice,"[7]; TDHM 757.49 mg/kg i.p., D6",5.83 g
same,average dietary of mice,"[7]; TDHM 757.49 mg/kg i.p., D7",6.25 g
same,Dead number,[7]; TDHM 802.94 mg/kg i.p.,18
same,mortality,[7]; TDHM 802.94 mg/kg i.p.,90%
same,average dietary of mice,"[7]; TDHM 802.94 mg/kg i.p., D1",4.6 g
same,average dietary of mice,"[7]; TDHM 802.94 mg/kg i.p., D2",7.66 g
same,average dietary of mice,"[7]; TDHM 802.94 mg/kg i.p., D3",7.08 g
same,average dietary of mice,"[7]; TDHM 802.94 mg/kg i.p., D4",9.04 g
same,average dietary of mice,"[7]; TDHM 802.94 mg/kg i.p., D5",6.89 g
same,average dietary of mice,"[7]; TDHM 802.94 mg/kg i.p., D6",6.23 g
same,average dietary of mice,"[7]; TDHM 802.94 mg/kg i.p., D7",6.27 g
same,Dead number,[7]; TDHM 851.11 mg/kg i.p.,20
same,mortality,[7]; TDHM 851.11 mg/kg i.p.,100%
same,average dietary of mice,"[7]; TDHM 851.11 mg/kg i.p., D1",0 g
same,average dietary of mice,"[7]; TDHM 851.11 mg/kg i.p., D2",0 g
same,average dietary of mice,"[7]; TDHM 851.11 mg/kg i.p., D3",0 g
same,average dietary of mice,"[7]; TDHM 851.11 mg/kg i.p., D4",0 g
same,average dietary of mice,"[7]; TDHM 851.11 mg/kg i.p., D5",0 g
same,average dietary of mice,"[7]; TDHM 851.11 mg/kg i.p., D6",0 g
same,average dietary of mice,"[7]; TDHM 851.11 mg/kg i.p., D7",0 g
same,effect on dietary and body weight,[7]; mice,no significant effect
same,LD50,"[7]; mice, i.p., observed 7 days",748.69 mg/kg
